Consider 20 compounds from patent US20030064912A1, “Pharmaceutical compositions and methods of inhibiting angiogenesis using NAALADase inhibitors” (priority 1998, published 2003).

The target in one data set is NAALADase (Homo sapiens, UniProt Q04609). The data set can be described thus: In vitro inhibition of NAALADase activity. The data set is classed as biochemical. The note with it: for Ki: in vitro inhibition of NAALADase activity; for NAALADase inhibiting activity (in words): qualitative, compared with 2-(phosphonomethyl)pentanedioic acid. As for the experimental part:
Various compounds of the present invention were tested for in vitro inhibition of NAALADase activity.

In a further data set the test system is mice. The data set can be described thus: In vivo toxicity of NAALADase inhibitors in mice. Particulars: for Survival Rate After 5 days (%): observed 5 consecutive days. An excerpt:
The mice were subsequently observed two times per day for 5 consecutive days. The survival rate at each dose level is provided below in TABLE II.

Data set [1] concerns angiogenesis in the Matrigel™/bFGF gels. As to the kind of experiment: In vivo assay of a continuous dosage of NAALADase inhibitors on angiogenesis (miniosmotic pumps, Matrigel/bFGF). Also on record: species or system C57B1 female mice. The note with it: 13 days post injection. The protocol:
Minipumps filled with vehicle (50 mM Hepes) were also implanted at this time. Twenty-four hours later, mice were each injected subcutaneously with 0.5 mL Matrigel™ and the 150 ng/mL of the angiogenic factor, basic FGF (bFGF). Thirteen days post Matrigel™/bFGF injection, the gels were recovered, fixed in formalin and sections were stained with Trichrome-Masson stain.

In data set [2] the test system is angiogenesis in Matrigel™ plugs. The data set can be described thus: In vivo assay of daily dosages of NAALADase inhibitors on angiogenesis (Matrigel plug with bFGF). Details: species or system C57B1 female mice. Particulars: 7 days post injection. As for the experimental part: C57B1 female mice age 8 to 10 weeks (5/group) were injected subcutaneously with 0.5 mL of Matrigel™, 150 ng/mL of the angiogenic factor basic FGF (bFGF) and with 0, 0.47 μM or 4.7 μM […] (PMPA). The injected Matrigel™ rapidly formed a gel. […] Seven days post Matrigel™ injection, Matrigel™ plugs were excised and histology was performed.
The concentrations of the daily dosages as well as the coinciding initial Matrigel™ plug compositions are provided below in TABLE IV.

NAALADase, sequence (Q04609 whole entry): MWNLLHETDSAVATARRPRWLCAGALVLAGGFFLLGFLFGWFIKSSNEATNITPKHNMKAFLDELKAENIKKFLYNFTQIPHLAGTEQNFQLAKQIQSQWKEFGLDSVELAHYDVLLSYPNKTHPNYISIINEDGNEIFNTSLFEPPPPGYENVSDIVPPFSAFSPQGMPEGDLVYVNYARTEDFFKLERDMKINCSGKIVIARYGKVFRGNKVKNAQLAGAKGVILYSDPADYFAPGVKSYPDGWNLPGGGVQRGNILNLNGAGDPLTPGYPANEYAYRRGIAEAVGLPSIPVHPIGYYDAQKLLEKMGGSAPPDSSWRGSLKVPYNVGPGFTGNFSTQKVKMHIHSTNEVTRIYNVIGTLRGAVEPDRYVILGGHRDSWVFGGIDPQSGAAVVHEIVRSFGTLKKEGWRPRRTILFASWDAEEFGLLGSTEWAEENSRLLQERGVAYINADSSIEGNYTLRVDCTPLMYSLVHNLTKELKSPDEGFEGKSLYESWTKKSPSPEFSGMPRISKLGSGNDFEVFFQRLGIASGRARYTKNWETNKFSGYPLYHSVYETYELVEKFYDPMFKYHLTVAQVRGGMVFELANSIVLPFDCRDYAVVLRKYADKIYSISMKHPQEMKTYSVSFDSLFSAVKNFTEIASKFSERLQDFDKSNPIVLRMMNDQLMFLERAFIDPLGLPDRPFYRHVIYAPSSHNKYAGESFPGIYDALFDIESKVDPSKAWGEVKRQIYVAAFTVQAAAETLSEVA

For the compound `CC(CP(=O)(O)CC(CCC(=O)O)C(=O)O)C(=O)O` (stereo not drawn), the inhibition constant (Ki) at NAALADase was 1.5 nM.

At NAALADase, `O=C(O)CCC(CP(=O)(O)Cc1cccc(C(F)(F)F)c1)C(=O)O` (stereo not drawn) had a Ki of 22.5 nM. With `O=C(O)CCC(CP(=O)(O)CCC(=O)O)C(=O)O` (stereo not drawn) [2-[[(2-carboxyethyl)hydroxyphosphinyl]-methyl]pentanedioic acid], on NAALADase, the Ki turned out to be 1.89 ± 0.19 nM and the “NAALADase inhibiting activity (in words)” value is “lower NAALADase inhibiting activity”.

For the compound `CC(=O)NCP(=O)(O)CC(CCC(=O)O)C(=O)O` (stereo not drawn), the affinity at NAALADase corresponds to a Ki of 118 nM. On the same count and under the same terms, the value for `O=C(O)CCC(CP(=O)(O)CCCc1ccccc1)C(=O)O` (stereo not drawn) was 232 nM; that for `Cc1ccc(NCP(=O)(O)CC(CCC(=O)O)C(=O)O)cc1` (stereo not drawn) was 5.2 nM. Regarding `O=C(O)CCC(CP(=O)(O)CC(CCC(=O)OCc1ccccc1)C(=O)OCc1ccccc1)C(=O)O` (stereo not drawn), the Ki at NAALADase was determined as 12.7 nM. On the same count and under the same terms, the value for `O=C(O)CCC(CP(=O)(O)CNCc1ccccc1)C(=O)O` (stereo not drawn) was 51.8 nM; that for `O=C(O)CCC(CP(=O)(O)c1ccccc1)C(=O)O` (stereo not drawn) was 35.9 nM. The same measure, in the same setting: under `O=C(O)CCC(CP(=O)(O)C(NCc1ccccc1)c1ccccc1)C(=O)O` (stereo not drawn) stands 313 nM; under `O=C(O)CCC(CP(=O)(O)Cc1c(F)c(F)c(F)c(F)c1F)C(=O)O` (stereo not drawn), 22.7 nM.

On to `O=C(O)CCC(CP(=O)(O)CCc1ccccc1)C(=O)O` (stereo not drawn), for which the affinity at NAALADase corresponds to a Ki of 148 nM.

For the compound `O=C(O)CC(CP(=O)(O)O)C(=O)O` (stereo not drawn) [2-(phosphonomethyl)succinic acid], at NAALADase, the “NAALADase inhibiting activity (in words)” value is listed as “much lower NAALADase inhibiting activity”. On NAALADase, `O=C(O)CCC(CP(=O)(O)CNC(=O)Nc1ccccc1)C(=O)O` (stereo not drawn) came in with a Ki of 75 nM.

In the case of `COc1ccc(NCP(=O)(O)CC(CCC(=O)O)C(=O)O)cc1` (stereo not drawn), at NAALADase, the Ki turned out to be 2.5 nM. Same read-out and setting: under `CCCCP(=O)(O)CC(CCC(=O)O)C(=O)O` (stereo not drawn) stands 114 nM; under `O=C(O)CCC(CP(=O)(O)CC(CCC(=O)O)C(=O)O)C(=O)O` (stereo not drawn), 0.57 nM; under `O=C(O)CCC(CP(=O)(O)CN1C(=O)c2ccccc2C1=O)C(=O)O` (stereo not drawn), 34.5 nM. The same measure, in the same setting: the value for `O=C(O)CCC(CP(=O)(O)Cc1ccccc1)C(=O)O` (stereo not drawn) was 34.1 nM. Take `O=C(O)CCC(CP(=O)(O)O)C(=O)O` (stereo not drawn) [2-(phosphonomethyl)pentanedioic acid]: the “Survival Rate After 5 days (%)” value in the data set with mice (dose 1 mg/kg), with mice (dose 5 mg/kg), with mice (dose 10 mg/kg), in the data set on mice (dose 30 mg/kg), in the data set on mice (dose 100 mg/kg) and in the data set with mice (dose 300 mg/kg) was 100% throughout. Also, the “Survival Rate After 5 days (%)” value in the data set with mice (dose 500 mg/kg) is on record as 66.7%. For the same compound, the “Toxicity to mice (in words)” value with mice (doses 1 to 500 mg/kg) was “non-toxic to mice”. In addition, the “Angiogenic response in Matrigel™/bFGF gels” value is “strong angiogenic response” in data set [1] (1 μg/day continuous by minipump), “significantly decreased angiogenesis” in data set [1] (10 μg/day continuous by minipump) and “significantly decreased angiogenesis” in data set [1] (100 μg/day continuous by minipump). Also, the “Angiogenic response in Matrigel™ plugs (histology)” value in data set [2] (3 mg/kg daily subcutaneous injection, 0.47 μM in Matrigel) is “decreased neovasculature or angiogenesis”; in data set [2] (3 mg/kg daily subcutaneous injection, 0.47 μM in Matrigel, listed as PMPA), “decrease in blood vessels or angiogenesis”; in data set [2] (30 mg/kg daily subcutaneous injection, 4.7 μM in Matrigel), “decreased neovasculature or angiogenesis”; in data set [2] (30 mg/kg daily subcutaneous injection, 4.7 μM in Matrigel, listed as PMPA) it was “decrease in blood vessels or angiogenesis”. On NAALADase, the “NAALADase inhibiting activity (in words)” value is listed as “high NAALADase inhibiting activity”.
